Test [1] deals with T1, human LXRβ ligand binding domain (Homo sapiens, UniProt P55055).
T1 construct: LXRβLBD(185-461) is eluted with a gradient from 50 to 500 mM imidazole; made in house; host or cells: E. coli BL21(DE3), vector pRSETa
T1 sequence (P55055 184-460 limits assumed): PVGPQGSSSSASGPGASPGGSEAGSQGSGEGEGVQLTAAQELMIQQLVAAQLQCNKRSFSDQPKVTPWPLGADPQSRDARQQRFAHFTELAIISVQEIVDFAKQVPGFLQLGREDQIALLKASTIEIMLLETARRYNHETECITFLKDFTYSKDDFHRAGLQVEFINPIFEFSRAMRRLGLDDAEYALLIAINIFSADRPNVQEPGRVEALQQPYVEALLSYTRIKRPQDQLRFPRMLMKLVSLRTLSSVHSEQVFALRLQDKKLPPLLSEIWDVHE
T1 sequence (Q15788 676-700 partner limits assumed): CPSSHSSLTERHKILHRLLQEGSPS
Nature of the test: Ligand Sensing Assay (LiSA) for LXRβ Agonist Activity (recruitment of SRC1-derived peptide, HTRF). Type of test: biochemical. The settings on record: 1 μM; over a background reading of 10000 fluorescence units. The text has this: Test Method 1: Ligand Sensing Assay (LiSA) for LXRβ Agonist Activity
This assay measures the recruitment of a peptide derived from the coactivator protein, SRC1, to the agonist-bound LXRβ. Peptides derived from other nuclear receptor cofactors may be similarly prepared and assayed.
To generate the human LXRβ ligand binding domain suitable for LiSA, a modified polyhistidine tag (MKKGHHHHHHG) (SEQ ID No. 1) was fused in frame to the human LXRβ ligand binding domain (amino acids 185461 of Genbank accession number U07132) and subcloned into the expression vector pRSETa (Invitrogen) under the control of an IPTG inducible T7 promoter. The human LXRβ ligand binding domain was expressed in E. coli strain BL21(DE3). Ten-liter fermentation batches were grown in Rich PO4 media with 0.1 mg/mL Ampicillin at 25° C. for 12 hours, cooled to 9° C. and held at that temperature for 36 hours to a density of OD600=14. At this cell density, 0.25 mM IPTG was added and induction proceeded for 24 hours at 9° C., to a final OD600=16. […]
Typically 25-50 g of cell paste is resuspended in 250-500 mL TBS, pH 8.0 (25 mM Tris, 150 mM NaCl). […] After washing to baseline absorbance with equilibration buffer, the column is washed with approximately one column volume of TBS pH […] containing 95 mM imidazole. […] After washing to baseline absorbance with the dilution buffer the protein is eluted with a gradient from 50-500 mM NaCl. […]
Background: TR-FRET usually uses a lanthanide donor and a delayed reading to cut background.

Test [2] concerns the target T2, LXRα ligand binding domain (Homo sapiens, UniProt Q13133).
T2 construct: his tag; made in house
T2 sequence (Q13133 183-447): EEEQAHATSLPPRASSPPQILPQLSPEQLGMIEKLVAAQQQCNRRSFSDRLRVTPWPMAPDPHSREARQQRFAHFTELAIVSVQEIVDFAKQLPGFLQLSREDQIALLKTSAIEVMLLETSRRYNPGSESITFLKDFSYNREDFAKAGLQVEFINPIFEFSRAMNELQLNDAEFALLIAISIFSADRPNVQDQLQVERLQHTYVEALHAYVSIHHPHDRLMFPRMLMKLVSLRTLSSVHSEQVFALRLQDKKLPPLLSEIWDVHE
T2 sequence (Q15788 676-700 partner): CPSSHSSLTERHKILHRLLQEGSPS
The test can be described thus: Ligand Sensing Assay for LXRα Agonist Activity. Type of test: biochemical. To be noted: 1 μM; over a background reading of 10000 fluorescence units. The protocol: Test Method 2: Ligand Sensing Assay for LXRα Agonist Activity
The assay for LXRα was run according to the procedures of Test Method 1, above using his-tagged LXRα ligand binding domain (amino acids 183447 of Genbank accession number U22662, with the 14th amino acid corrected to A from R). In this assay 1 μM 24(S), 25-epoxycholesterol gave a reading of 20000 fluorescence units over a background reading of 10000 fluorescence units.

`C[C@H](CC[C@@H]1OC1(C)C)[C@H]1CC[C@H]2[C@@H]3CC=C4C[C@@H](O)CC[C@]4(C)[C@H]3CC[C@]12C` [24(S), 25-epoxycholesterol]: the reading in test [1] and in test [2] was 20000 fluorescence units each time.

Source of the values: patent US7560586B2, “Acid and ester compounds and methods of using the same” (SmithKline Beecham Corporation, priority 2002, dated 2009).
